Data on five compounds can be found in patent publication EP0657176B1, “Composition containing a water-insoluble or slightly water-soluble compound with enhanced water-solubility” (priority 1993, dated 1995).

In brackets after ≈: the same amount, converted by molar mass. Where two headings read alike, the source gives them in different places. Some results are limits rather than exact numbers.

For one data set, the system named is rats. Description: Toxicity in rats, intravenous administration every day for 2 weeks (Experiment 3). The format is in vivo. The procedure:
Four male rats were used. β-CyD-G2-COOH was dissolved in sterilized water. The solution was intravenously administered to rats in daily doses of 1 ml/kg, 3 ml/kg, and 10 ml/kg (containing β-CyD-G2-COOH in amounts of 100 mg/kg, 300 mg/kg, and 1000 mg/kg, respectively) every day for 2 weeks.
As a control, the toxicity of β-CyD-G2 was studied according to the same manner.

A short description of data set [1]: Hemolytic effect on rabbit erythrocytes (Experiment 1, Fig. 1). The conditions noted are these: rabbit, erythrocytes, phosphate buffer, pH 7.4.
Description: (§3) To this was added sodium 6-O-cyclomaltoheptaosyl-(6→1)-α-D-glucosyl-(4→1)-O-α-D-glucuronate (β-CyD-G2-COONa) was added so that the concentration thereof became 1 to 40 mM. The mixture was shaken at 37°C for 30 minutes and then centrifuged to separate the supernatant. […] The amount of hemoglobin bursted in water instead of isotonic phosphate buffer was used as a standard (100%), and the relative ratio to it was indicated as a hemolytic ratio.
(§4) Further, according to the same manner as that described above except using β-cyclodextrin (β-CyD) instead of β-CyD-G2-COONa, the hemolytic ratio was determined.
(§5) (Control: β-cylodextrin 4 mM, 6-O-α-D-glucosyl-(1→4)-α-D-glucosyl-β-cyclodextrin 8 mM)
The next data set addresses T1, Pullulanase (Klebsiella pneumoniae, UniProt P07206).
T1 construct: purchased
T1 sequence (P07206 20-1090): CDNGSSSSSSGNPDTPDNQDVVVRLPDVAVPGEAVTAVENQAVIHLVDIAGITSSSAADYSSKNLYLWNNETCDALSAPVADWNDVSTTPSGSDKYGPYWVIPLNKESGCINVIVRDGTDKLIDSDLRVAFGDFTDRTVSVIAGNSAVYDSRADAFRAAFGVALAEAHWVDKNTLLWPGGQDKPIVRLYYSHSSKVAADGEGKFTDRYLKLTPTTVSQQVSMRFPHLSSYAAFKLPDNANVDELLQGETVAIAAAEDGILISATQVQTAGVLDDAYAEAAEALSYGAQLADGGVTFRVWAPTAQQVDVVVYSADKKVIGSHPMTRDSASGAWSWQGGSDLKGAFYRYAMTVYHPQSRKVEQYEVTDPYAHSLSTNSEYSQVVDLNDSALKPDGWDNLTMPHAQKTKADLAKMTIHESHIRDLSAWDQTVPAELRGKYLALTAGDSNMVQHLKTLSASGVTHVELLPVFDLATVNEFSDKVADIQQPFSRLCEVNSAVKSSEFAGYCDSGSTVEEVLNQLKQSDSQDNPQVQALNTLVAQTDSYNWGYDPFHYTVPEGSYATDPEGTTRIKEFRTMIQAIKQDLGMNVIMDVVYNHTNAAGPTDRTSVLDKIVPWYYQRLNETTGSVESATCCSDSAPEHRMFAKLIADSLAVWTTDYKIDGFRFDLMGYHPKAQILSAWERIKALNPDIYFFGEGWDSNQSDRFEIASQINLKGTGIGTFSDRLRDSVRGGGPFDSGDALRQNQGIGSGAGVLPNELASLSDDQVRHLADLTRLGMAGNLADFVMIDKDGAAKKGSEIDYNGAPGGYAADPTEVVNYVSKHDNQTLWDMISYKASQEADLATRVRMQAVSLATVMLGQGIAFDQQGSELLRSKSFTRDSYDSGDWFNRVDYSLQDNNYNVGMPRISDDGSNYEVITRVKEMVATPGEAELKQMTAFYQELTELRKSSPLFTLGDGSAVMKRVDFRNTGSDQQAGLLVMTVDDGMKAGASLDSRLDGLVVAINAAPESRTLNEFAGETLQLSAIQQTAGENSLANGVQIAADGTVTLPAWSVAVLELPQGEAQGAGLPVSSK
Description: Stability to enzymatic treatment with pullulanase (Experiment 4, Fig. 5). The format is in vitro ADME. The conditions noted are these: 10 mM aqueous cyclodextrin, pullulanase 10 unit/ml, 37°C, 0 to 120 minutes; read-out: decomposed in the enzymatic treatment with pullulanase. The procedure: (§1) As a control, 6-O-α-maltosyl-β-cyclodextrin was used. Test method: Each of prescribed amounts of the following enzymes was added to a 10 mM aqueous solution of cyclodextrin to be tested. The mixture was allowed to stand in a water bath at 37°C. 50 µl of each mixture was sampled, and the enzyme was inactivated by heating it at 100°C for 15 minutes, centrifuged at 15,000 rpm for 5 minutes, filtered through Millipore USY-1 (differential molecular weight: 10,000), diluted 10 times and subjected to HPLC analysis. HPLC analytic conditions: • Column; NH2P-50 (Asahipak) • Mobile phase; CH3CN:H2O=48:52 to which 0.005M PIC reagent was added. • Flow rate; 0.8 ml/minute • Detection; RI The ratio of the remaining cyclodextrin at 0 to 120 minutes was determined from the above HPLC analysis of each sample.
(§2) Each unit is as described in the instruction book of the enzyme obtained from above market. Results: Changes of the ratio of remaining 6-O-α-D-glucuronyl(1→4)-α-D-glucosyl-β-cyclodextrin sodium salt (branched cyclodextrin-carboxylic acid salt) and 6-O-α-maltosyl-β-cyclodextrin (branched cyclodextrin) with the passage of time are shown in Figures 3 to 6. In the figures, black triangles represent the branched cyclodextrin-carboxylic acid salt, and black dots represent the branched cyclodextrin.

A short description of data set [2]: Stability to acid: half-life in 0.1N HCl solution.
For data set [3] the following is noted: cited from earlier work.
The nature of data set [4]: Water-solubility of the cyclodextrins themselves.
The conditions of data set [5]: water.
The target in the next data set is T2, β-Glucuronidase (Bos taurus, UniProt A3KMY8).
T2 construct: purchased; host or cells: calf liver (per earlier reading)
T2 sequence (A3KMY8 1-652): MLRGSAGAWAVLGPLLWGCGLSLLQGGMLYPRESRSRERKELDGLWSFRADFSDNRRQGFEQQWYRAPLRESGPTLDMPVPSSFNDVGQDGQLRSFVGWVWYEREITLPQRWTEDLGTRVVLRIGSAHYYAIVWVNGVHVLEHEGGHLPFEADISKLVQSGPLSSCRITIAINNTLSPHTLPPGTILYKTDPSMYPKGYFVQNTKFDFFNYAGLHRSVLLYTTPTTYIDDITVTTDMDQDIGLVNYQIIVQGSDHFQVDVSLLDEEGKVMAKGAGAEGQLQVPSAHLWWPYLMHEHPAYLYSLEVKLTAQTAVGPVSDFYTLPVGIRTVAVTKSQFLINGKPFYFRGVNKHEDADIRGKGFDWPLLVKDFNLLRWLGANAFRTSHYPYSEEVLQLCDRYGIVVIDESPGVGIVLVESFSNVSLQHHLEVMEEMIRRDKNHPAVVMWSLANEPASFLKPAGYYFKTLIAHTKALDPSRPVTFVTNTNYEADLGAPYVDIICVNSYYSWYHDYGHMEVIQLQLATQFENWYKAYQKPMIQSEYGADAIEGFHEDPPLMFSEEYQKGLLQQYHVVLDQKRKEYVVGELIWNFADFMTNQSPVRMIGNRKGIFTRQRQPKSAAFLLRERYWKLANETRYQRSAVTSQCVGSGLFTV
Description: Stability to enzymatic treatment with β-glucuronidase (Experiment 4, Fig. 6). In kind it is in vitro ADME, Calf liver. The conditions noted are these: 10 mM aqueous cyclodextrin, β-glucuronidase 700 unit/ml, 37°C, 0 to 120 minutes; compared with 6-O-α-maltosyl-β-cyclodextrin. The protocol:
as §1, §2

Data set [6] deals with Rabbit erythrocytes. The conditions noted are these: phosphate buffer, pH 7.4.
Description: as §3, §4, §5
The subject of data set [7] is Rabbit erythrocytes. Description: Hemolytic effect on rabbit erythrocytes (Experiment 1, Fig. 1). The conditions noted are these: 0.25% rabbit erythrocyte suspension, 10 mM isotonic phosphate buffer (pH 7.4), 1 to 40 mM, 37°C, 30 minutes.
Description: as §3, §4, §5
The test system of a further data set is Human erythrocytes. Description: Hemolytic effect on human erythrocytes (Experiment 2, Fig. 2). The format is cell-based. The conditions noted are these: 0.1M isotonic phosphate buffer (pH 7.4), 5 to 30 mM, 37°C, 30 minutes. The protocol:
Human erythrocytes were added to 0.1M isotonic phosphate buffer (pH 7.4) to prepare a 20% suspension. The 20% erythrocyte suspension (100 µl) was added to an isotonic buffer (4 ml) containing β-CyD-G2-COONa in a concentration of 5 to 30 mM.
The results are in Figure 2 together with the above results for comparison.

In a further data set the target is T3, Glucoamylase (Rhizopus oryzae, UniProt P07683).
T3 construct: purchased
In kind it is in vitro ADME, Rhizopus sp. The conditions noted are these: 10 mM aqueous cyclodextrin, glucoamylase 2 unit/ml, 37°C, 0 to 120 minutes; compared with 6-O-α-maltosyl-β-cyclodextrin. The protocol: as §1, §2

Where [8] appears, read: male rats, 100 mg/kg, 300 mg/kg and 1000 mg/kg every day for 2 weeks.

T3 sequence (P07683 26-604): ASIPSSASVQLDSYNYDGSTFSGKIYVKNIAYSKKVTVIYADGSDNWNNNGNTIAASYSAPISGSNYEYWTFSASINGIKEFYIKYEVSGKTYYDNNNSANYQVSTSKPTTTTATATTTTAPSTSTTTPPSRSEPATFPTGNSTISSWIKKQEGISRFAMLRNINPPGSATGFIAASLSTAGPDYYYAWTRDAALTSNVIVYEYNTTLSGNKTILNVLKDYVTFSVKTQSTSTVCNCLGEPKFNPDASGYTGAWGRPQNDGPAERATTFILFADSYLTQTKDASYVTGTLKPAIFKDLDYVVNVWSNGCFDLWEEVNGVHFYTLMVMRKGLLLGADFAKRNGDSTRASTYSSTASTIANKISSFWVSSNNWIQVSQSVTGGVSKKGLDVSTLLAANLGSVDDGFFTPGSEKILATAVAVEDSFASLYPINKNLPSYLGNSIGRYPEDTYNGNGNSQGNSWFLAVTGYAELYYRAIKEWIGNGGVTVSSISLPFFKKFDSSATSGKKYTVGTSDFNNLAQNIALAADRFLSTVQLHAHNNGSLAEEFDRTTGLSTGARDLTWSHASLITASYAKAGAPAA

Take “6-O-cyclomaltoheptaosyl-(6→1)-α-D-glucosyl-(4→1)-O-α-D-glucuronic acid [β-CyD-G2-COOH]”: in the data set with rats (setting [8]), the “Pathological and histological examination” value was “no serious findings such as necrosis”; the death result was “No rats died”; the “general appearance, diet intake amount, body weight, urine sediments, hematological examination” value was “No abnormality was observed”.
As for `OC[C@H]1O[C@@H]2O[C@H]3[C@H](O)[C@@H](O)[C@@H](O[C@H]4[C@H](O)[C@@H](O)[C@@H](O[C@H]5[C@H](O)[C@@H](O)[C@@H](O[C@H]6[C@H](O)[C@@H](O)[C@@H](O[C@H]7[C@H](O)[C@@H](O)[C@@H](O[C@H]8[C@H](O)[C@@H](O)[C@@H](O[C@H]1[C@H](O)[C@H]2O)O[C@@H]8CO)O[C@@H]7CO)O[C@@H]6CO)O[C@@H]5CO)O[C@@H]4CO)O[C@@H]3CO` [β-CyD, β-cyclodextrin], the HC50 (in general, the concentration giving 50% haemolysis) in [1] worked out at 4 mM.
Regarding `OC[C@H]1O[C@H](O[C@H]2[C@H](O)[C@@H](O)[C@@H](OC[C@H]3O[C@@H]4O[C@H]5[C@H](O)[C@@H](O)[C@@H](O[C@H]6[C@H](O)[C@@H](O)[C@@H](O[C@H]7[C@H](O)[C@@H](O)[C@@H](O[C@H]8[C@H](O)[C@@H](O)[C@@H](O[C@H]9[C@H](O)[C@@H](O)[C@@H](O[C@H]%10[C@H](O)[C@@H](O)[C@@H](O[C@H]3[C@H](O)[C@H]4O)O[C@@H]%10CO)O[C@@H]9CO)O[C@@H]8CO)O[C@@H]7CO)O[C@@H]6CO)O[C@@H]5CO)O[C@@H]2CO)[C@H](O)[C@@H](O)[C@@H]1O` [β-CyD-G2, 6-O-α-maltosyl-β-cyclodextrin], the metabolised at 2 h, 10000 µM on Pullulanase is approximately 60%. Further, in data set [2], the half-life – broadly, the time in which the quantity being followed falls by half – was 5 h. In data set [1], the HC50 worked out at 8 mM. In addition, in data set [3] (stated as known), the “water-solubility relative to that of β-cyclodextrin” value is “several tens of times that of β-cyclodextrin”. The compound further registered a solubility in data set [4] of 1500 mg/mL (≈ 1030 mM). Moreover, the “Pathological and histological examination” value in the data set with rats (rats, every day for 2 weeks, 300 mg/kg and 1000 mg/kg groups) is “renal tubule epithelium vacuolation and necrosis”. The Urine examination result with rats (rats, every day for 2 weeks, 1000 mg/kg group) was “occult blood and an increase in LDH and NAG”. Further, the “observed signs (general appearance)” value in the data set with rats (rats, every day for 2 weeks, groups of 300 mg/kg and 1000 mg/kg) is “Auricle flush and peripheral swelling in the extremities”.
“sodium 6-O-cyclomaltoheptaosyl-(6→1)-α-D-glucosyl-(4→1)-O-α-D-glucuronate [β-CyD-G2-COONa]”: the “Half-life in 0.1N HCl solution at 60°C” value is 8 h. In [5], this compound returned a solubility of more than 200 g/100 ml. Moreover, the “stability to the enzymatic treatment with β-glucuronidase” value at β-Glucuronidase is on record as “more stable”. Besides, in the data set with Rabbit erythrocytes [6], the HC50 is 11 mM. Moreover, the “hemolytic effect (hemolytic ratio vs cyclodextrin concentration, Figure 1)” value in the data set with Rabbit erythrocytes [7] is reported as “much less hemolytic effect than that of β-CyD”. Moreover, in the data set on Human erythrocytes, the “hemolytic effect (hemolytic ratio vs cyclodextrin concentration, Figure 2)” value is given as “much less hemolytic effect than that of β-CyD, β-CyD-G1 or β-CyD-G2”. The “stability to the enzymatic treatment with glucoamylase” value at Glucoamylase is “more stable”.
As for α-cyclodextrin [α-CyD], in data set [3] (water), the water-solubilities entry is on record as “about 15%”.
